# In patent US11524950B2, “Treatment of immune-related and inflammatory diseases” (Celgene Corporation, priority 2012, dated 2022):
# What was measured:
# CD19+ B cells = test: B cell differentiation assay: CD20/CD38 phenotyping by flow cytometry; assay type: cell-based, human; settings: for CD20−CD38++ plasmablasts/plasma cells, % / CD20+CD38− activated B cells, % / CD20+CD38+ intermediated cells, %: 3 donors; for plasmablast population (CD20-CD38+): day 7, DMSO control 30.4%
# Procedure: Differentiated B cells (see section 8.2.3) were harvested, counted, and aliquoted at about 1×10^6 cells or less per 4 mL tube. The cells were washed 1× with stain buffer. Next, the cells then were blocked with 10% human serum/PBS for 20-30 minutes. Following blocking, the cells were centrifuged for 5 minutes at 1200 rpm and supernatants discarded. In the 100 μL of remaining buffer, 20 μL of various BD Pharmigen flow antibodies were added according to experimental design. The cells were stained for 20-30 minutes at 4° C. Then the cells were washed 2× with stain buffer and supernatants discarded. Next, 500 μL of stain buffer or PBS was added to the tubes. The samples were immediately analyzed or put at 4° C. overnight. Cells were stained with mouse anti-human CD20 and CD38, CD19 and CD27, or respective isotype controls. All samples were analyzed using a FACSCanto flow cytometer, FACSDiva analysis software (BD Bioscience), and FlowJo Analysis software.
# Immunophenotyping For Flow Cytometric Analysis: Cells were stained using multicolor direct immunofluorescence stain for flow cytometric analysis. Surface staining was performed before cell fixation and permeabilization. Cells (50 μl; 1×10^6 cells/ml in washing buffer, 2% FBS with 0.1% NaN3 in PBS) were used for each staining. The cells were stained with isotype control mAb ([…]) and multicolor FITC-conjugated anti-CD20 mAb and PE-conjugated anti-CD38 mAb, or PerCP-Cy5.5 conjugated anti-CD44 mAb, PE-conjugated anti-CD83 mAb were used for day 4 activated B cells (CD20+CD38-cells), and day 4 PBs and day 7 PBs (CD20-CD38+), and other staining, analyzed by flow cytometry as per manufacturer's instructions. The intracellular staining of transcription factor proteins (BCL-6, IRF-4, BLIMP-1, PAX-5 and XBP-1) and IgJ was performed according to the manufacturer's recommendations.
# DBA/2 mice = test: Bleomycin-induced dermal fibrosis mouse model (prevention); assay type: in vivo; settings: 30 mg/kg, PO, QD
# Procedure: DBA/2 mice were used in this study. Eight animals were used per treatment group in the study. Mice were kept in the animal house under standard conditions with food and water ad libidum.
# The vehicle, 0.5% carboxymethyl cellulose (CMC)/0.25% Tween 80, was prepared in distilled H2O and dissolved overnight on a magnetic stirrer (add 0.5 g CMC; Sigma #C9481) and 0.25 ml Tween 80 (Sigma #P8074) to 99.75 ml to make a total of 100 ml 0.5% CMC/0.25% Tween 80).
# The compound was suspended, not dissolved, in this vehicle. The formulation was homogenized with a Teflon pestle and mortar (Potter-Elvehjem tissue grinder) using a motorized Eberbach tissue homogenizer. The daily drug stock concentration used in these studies was 3 mg/ml.
# Bleomycin was obtained from the pharmacy of the University of Erlangen-Nuremberg and freshly prepared once a week. Skin fibrosis was induced in 6-week-old DBA mice by local intracutaneous injections of 100 μl of bleomycin dissolved in 0.9% NaCl, at a concentration of 0.5 mg/ml, every other day in defined areas of 1.5 cm^2 on the upper back.
# The mouse model of bleomycin induced dermal fibrosis is widely used to evaluate anti-fibrotic therapeutics. In this model, a localized dermal fibrosis is induced by intradermal injections with bleomycin every other day for 3 weeks. This model resembles early, inflammatory stages of SSc. To evaluate potential effects on prevention of fibrosis, treatment was initiated simultaneously with the first bleomycin injection. […] Treatment consisted of administration of the vehicle (0.5% CMC/0.25% Tween 80). • Untreated bleomycin group: Intradermal injection of bleomycin for three weeks. […] Injection of Imatinib (50 mg/kg; IP, QD). […] See Akhmetshina A. et al., Arthritis Rheum 2009; 60(1):219-224.
# Dermal thickness was determined by staining with hematoxylin and eosin and activated fibroblasts by using immunohistochemistry for alpha smooth muscle actin (α-SMA). The dermal thickness, as determined by the modified Rodnan Skin Score, is currently the most common primary outcome in human clinical trials for anti-fibrotic agents in SSc. […] Dermal thickness was analyzed with a Nikon Eclipse 80i microscope (Nikon, Badhoevedorp, The Netherlands) by measuring the maximal distance between the epidermal-dermal junction and the dermal-subcutaneous fat junction at 4 different skin sections in each mouse. […]
# For quantification of myofibroblasts, skin sections were deparaffinized and incubated with 5% bovine serum albumin for 60 minutes. Cells positive for α-SMA were detected by incubation with monoclonal anti-α-SMA antibodies (clone 1A4; Sigma-Aldrich, Steinheim, Germany) for 2 hours at room temperature followed by incubation with 3% hydrogen peroxide for 10 minutes. […]
# MRL/MpJ-Faslpr/J mouse = MRL/MpJ-Faslpr/J mouse model of systemic lupus erythematosus; assay type: in vivo; settings: 30 mg/kg; week 4
# NZBWF1/J mouse = NZBWF1/J mouse model of systemic lupus erythematosus; assay type: in vivo; settings: 30 mg/kg; week 4
smiles,measurement,setting,value
"O=C1CC[C@H](N2Cc3c(OCc4ccc(CN5CCOCC5)cc4)cccc3C2=O)C(=O)N1 [Test compound, (S)-3-[4-(4-morphlin-4-ylmethylbenzyloxy)-1-oxo-1,3-dihydro-isoindo-2-yl]piperidine-2,6-dione]",percentage of CD20+CD38- activated B cells,CD19+ B cells,increased
same,percentage of CD20-CD38+ plasmablasts,CD19+ B cells,dose-dependently reduced
same,percentage of large size cells (gate p2),"CD19+ B cells; Day 4, 2 nM, DMSO 35.5%",31.2%
same,"CD20−CD38++ plasmablasts/plasma cells, %","CD19+ B cells; Day 4, 20 nM, DMSO 25.9 ± 2.4",4.8 ± 2.3%
same,"CD20−CD38++ plasmablasts/plasma cells, %","CD19+ B cells; Day 4, 20 nM, DMSO 25.9 ± 2.4, listed as test compound",4.8%
same,"CD20+CD38− activated B cells, %","CD19+ B cells; Day 4, 20 nM, DMSO 42.1 ± 1.5",57.9 ± 11.5%
same,"CD20+CD38− activated B cells, %","CD19+ B cells; Day 4, 20 nM, DMSO 42.1 ± 1.5, listed as test compound",57.9%
same,percentage of large size cells (gate p2),"CD19+ B cells; Day 4, 20 nM, DMSO 35.5%",23.1%
same,percentage of large size cells (gate p2),"CD19+ B cells; Day 4, 200 nM, DMSO 35.5%",20.4%
same,"CD20+CD38+ intermediated cells, %","CD19+ B cells; Day 4, DMSO 14.7 ± 3.1",18.3 ± 5.5%
same,percentage of large size cells (gate p2),"CD19+ B cells; Day 7, 2 nM, DMSO 34.9%",34.9%
same,"CD20+CD38− activated B cells, %","CD19+ B cells; Day 7, 20 nM, DMSO 12.5 ± 5.7",50.5 ± 8.6%
same,"CD20+CD38− activated B cells, %","CD19+ B cells; Day 7, 20 nM, DMSO 12.5 ± 5.7, listed as test compound",50.5%
same,"CD20−CD38++ plasmablasts/plasma cells, %","CD19+ B cells; Day 7, 20 nM, DMSO 54.8 ± 5.0",9.7 ± 5.4%
same,"CD20−CD38++ plasmablasts/plasma cells, %","CD19+ B cells; Day 7, 20 nM, DMSO 54.8 ± 5.0, listed as test compound",9.7%
same,percentage of large size cells (gate p2),"CD19+ B cells; Day 7, 20 nM, DMSO 34.9%",19.9%
same,percentage of large size cells (gate p2),"CD19+ B cells; Day 7, 200 nM, DMSO 34.9%",11.94%
same,"CD20+CD38+ intermediated cells, %","CD19+ B cells; Day 7, DMSO 22.8 ± 5.1",23 ± 7.7%
same,plasmablast population (CD20-CD38+),CD19+ B cells; 2 nM,27.3%
same,plasmablast population (CD20-CD38+),CD19+ B cells; 20 nM,2.1%
same,plasmablast population (CD20-CD38+),CD19+ B cells; 200 nM,0.4%
same,large size cell population (gate p2),CD19+ B cells; normal B cell differentiation assay,dose-dependently depleted
same,prevention of dermal thickening,"DBA/2 mice; 3 weeks, p<0.001",approximately 25±0.49%
same,reduction of number of α-SMA+ myofibroblasts,DBA/2 mice; p<0.05,24±0.09%
same,"Splenic B cells, increase",MRL/MpJ-Faslpr/J mouse,37%
same,"anti-double stranded DNA autoantibody level, decrease",MRL/MpJ-Faslpr/J mouse,25%
same,peripheral blood B cells,MRL/MpJ-Faslpr/J mouse,no change
same,"anti-double stranded DNA autoantibody level, increase",NZBWF1/J mouse,86%
same,"peripheral blood B cells, decrease",NZBWF1/J mouse,25%
same,splenic B cells,NZBWF1/J mouse,no change
